Reference: US20200405885A1, “MAGNETIC RESONANCE IMAGING (MRI) CONTRAST AGENTS AND USE THEREOF” (TECHNION RESEARCH & DEVELOPMENT FOUNDATION LTD., priority 2017, published 2020)

How the values were obtained:
[1] = Solubilization of MFS-agent in water; type: physicochemical; details: 0.1 mM in water, no DMSO or other solvents
Description: (§1) To examine the multi-functionality of the complete MFS-agent 2 (FIG. 2B), compound 2 was solubilized in water (0.1 mM) and imaged via three distinct imaging modalities (FIG. 4A-C). […] This is a highly desirable trait, for a molecule that will be delivered through the blood stream. […] Red fluorescence emission was determined by using spectral analysis of a confocal microscope (FIG. 4B).

[2] = Phantom T1 MRI measurement (1 T scanner); details: 0.1 mM dissolved in water vs control (0 mM), 1 T MRI scanner
Description: (§2) FIGS. 4A-C present the characterization of the MFS-agent 2 using different imaging modalities; (4A) Phantom T1 MRI-measurement (Bruker, ASPECT 1 T MRI scanner, USA) of control (0 mM) and MFS-agent (0.1 mM dissolved in water), (4B) Emission spectra of the MFS measured by confocal microscope (LSM-880, Zeiss, Germany) with 561 nm laser excitation (peak emission (nm): 617), (4C) and Phantom measurement in X-ray micro-Computed Tomography scanner (Bruker, Skyscan micro-CT, USA) of control (0 mM) and MFS-agent (0.1 mM dissolved in water).
as §1

[3] = Emission spectrum by confocal microscope; type: physicochemical; details: 561 nm laser excitation
Description: as §2, §1

[4] = Phantom measurement in X-ray micro-CT scanner; details: 0.1 mM dissolved in water vs control (0 mM)
Description: as §2, §1

solubility in water [1]: dissolved easily in water
peak emission [3]: 617 nm
Compound: Nc1nc(OCc2ccc(CNC(=O)NCCOCCN(CCOCCn3cc(CNC(=O)CN4CCN(CC(=O)O)CCN(CC(=O)O)CCN(CC(=O)O)CC4)nn3)S(=O)(=O)c3ccc(C4=c5cc6c7c(c5Oc5c4cc4c8c5CCCN8CCC4)CCC[N+]=7CCC6)c(S(=O)(=O)O)c3)cc2)c2nc[nH]c2n1 [compound 2]
T1 MRI contrast [2]: very bright contrast
CT signal (X-ray attenuation) [4]: very strong CT signal
